pIC50: −log10 of the molar value.
Assays:
[1] = molecular target: T1, LXRβ (Homo sapiens, UniProt P55055); settings: read-out: LXRβ antagonistic activity (IC50); cited from earlier work
T1 construct: CMX-GAL4N-hLXRβ-LBD; expressed in transfected cells; host or cells: HEK293
T1 sequence (P55055 222-460 limits assumed): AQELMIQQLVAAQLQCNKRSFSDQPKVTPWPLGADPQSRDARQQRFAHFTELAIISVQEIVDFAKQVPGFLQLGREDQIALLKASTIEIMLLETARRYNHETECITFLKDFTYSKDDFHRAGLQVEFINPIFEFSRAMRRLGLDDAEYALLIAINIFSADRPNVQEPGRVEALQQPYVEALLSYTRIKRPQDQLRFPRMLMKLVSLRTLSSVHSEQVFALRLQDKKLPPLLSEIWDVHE

[2] = molecular target: T2, PR (Homo sapiens, UniProt P06401); assay: T-47D alkaline phosphatase assay (PR antagonism); type: cell-based
T2 sequence (P06401 1-933): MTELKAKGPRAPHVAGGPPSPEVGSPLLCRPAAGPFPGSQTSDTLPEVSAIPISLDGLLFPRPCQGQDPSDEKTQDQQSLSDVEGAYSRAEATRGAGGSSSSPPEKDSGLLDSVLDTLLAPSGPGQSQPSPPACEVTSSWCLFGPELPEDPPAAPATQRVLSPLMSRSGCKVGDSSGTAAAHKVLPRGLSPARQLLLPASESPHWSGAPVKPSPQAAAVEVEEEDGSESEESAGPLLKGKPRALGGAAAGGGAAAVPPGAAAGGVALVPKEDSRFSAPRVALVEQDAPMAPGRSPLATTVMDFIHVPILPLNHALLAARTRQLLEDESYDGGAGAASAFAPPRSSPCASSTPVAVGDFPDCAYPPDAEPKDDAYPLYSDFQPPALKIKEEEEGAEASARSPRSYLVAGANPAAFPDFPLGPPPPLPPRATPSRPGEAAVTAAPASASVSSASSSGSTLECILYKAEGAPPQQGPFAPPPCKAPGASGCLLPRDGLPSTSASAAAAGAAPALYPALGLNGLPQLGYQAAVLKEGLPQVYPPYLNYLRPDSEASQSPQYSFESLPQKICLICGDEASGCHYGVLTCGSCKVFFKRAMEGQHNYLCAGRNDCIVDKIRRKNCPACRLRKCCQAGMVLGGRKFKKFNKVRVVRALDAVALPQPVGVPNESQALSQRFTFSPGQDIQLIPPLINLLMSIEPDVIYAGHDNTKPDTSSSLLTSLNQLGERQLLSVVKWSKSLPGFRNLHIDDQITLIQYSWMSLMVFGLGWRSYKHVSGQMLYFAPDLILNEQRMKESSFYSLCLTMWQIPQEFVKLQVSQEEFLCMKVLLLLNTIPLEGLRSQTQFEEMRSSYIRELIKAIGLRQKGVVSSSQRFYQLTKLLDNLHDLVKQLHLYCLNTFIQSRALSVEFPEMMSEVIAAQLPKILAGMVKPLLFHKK

[3] = molecular target: T3, RORβ (Homo sapiens, UniProt Q92753); assay: RORβ inverse agonist reporter gene assay in HEK293; type: cell-based; settings: new compound 43, read-out: RORβ inverse agonistic activity (IC50)
T3 construct: expressed in transfected cells; host or cells: HEK293
T3 sequence (Q92753 1-459 isoform Q92753-1): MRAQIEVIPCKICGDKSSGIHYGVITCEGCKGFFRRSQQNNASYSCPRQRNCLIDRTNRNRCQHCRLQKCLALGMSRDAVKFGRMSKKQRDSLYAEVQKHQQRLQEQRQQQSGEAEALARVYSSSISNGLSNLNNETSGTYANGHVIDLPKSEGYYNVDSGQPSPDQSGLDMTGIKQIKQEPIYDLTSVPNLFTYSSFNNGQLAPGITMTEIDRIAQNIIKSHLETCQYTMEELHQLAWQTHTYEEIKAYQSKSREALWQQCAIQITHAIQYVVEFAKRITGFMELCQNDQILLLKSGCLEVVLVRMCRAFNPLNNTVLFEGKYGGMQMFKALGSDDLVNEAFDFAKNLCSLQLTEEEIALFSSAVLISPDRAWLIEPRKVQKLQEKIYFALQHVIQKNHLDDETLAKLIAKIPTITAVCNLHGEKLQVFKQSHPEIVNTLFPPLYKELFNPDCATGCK

[4] = molecular target: T4, RORα (Homo sapiens, UniProt P35398); assay: RORα inverse agonist reporter gene assay in HEK293; type: cell-based; settings: new compound 43, read-out: RORα inverse agonistic activity (IC50)
T4 construct: expressed in transfected cells; host or cells: HEK293
T4 sequence (P35398 1-523): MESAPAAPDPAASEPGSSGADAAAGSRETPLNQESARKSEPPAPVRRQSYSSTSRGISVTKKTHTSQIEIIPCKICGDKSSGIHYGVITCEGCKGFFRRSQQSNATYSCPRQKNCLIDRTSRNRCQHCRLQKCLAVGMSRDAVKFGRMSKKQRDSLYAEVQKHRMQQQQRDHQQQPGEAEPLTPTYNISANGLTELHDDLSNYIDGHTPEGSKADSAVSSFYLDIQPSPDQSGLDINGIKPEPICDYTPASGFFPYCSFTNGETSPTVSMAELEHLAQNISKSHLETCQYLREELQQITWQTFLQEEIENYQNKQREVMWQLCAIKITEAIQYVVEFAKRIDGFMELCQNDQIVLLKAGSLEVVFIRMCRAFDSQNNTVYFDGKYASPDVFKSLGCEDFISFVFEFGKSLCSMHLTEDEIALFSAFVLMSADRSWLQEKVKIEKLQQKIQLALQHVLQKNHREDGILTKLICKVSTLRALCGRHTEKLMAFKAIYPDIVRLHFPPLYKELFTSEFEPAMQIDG

[5] = molecular target: T5, RORγ (Homo sapiens, UniProt P51449); assay: RORγ inverse agonist reporter gene assay in HEK293; type: cell-based; settings: new compound 43, read-out: RORγ inverse agonistic activity (IC50)
T5 construct: expressed in transfected cells; host or cells: HEK293
T5 sequence (P51449 1-518): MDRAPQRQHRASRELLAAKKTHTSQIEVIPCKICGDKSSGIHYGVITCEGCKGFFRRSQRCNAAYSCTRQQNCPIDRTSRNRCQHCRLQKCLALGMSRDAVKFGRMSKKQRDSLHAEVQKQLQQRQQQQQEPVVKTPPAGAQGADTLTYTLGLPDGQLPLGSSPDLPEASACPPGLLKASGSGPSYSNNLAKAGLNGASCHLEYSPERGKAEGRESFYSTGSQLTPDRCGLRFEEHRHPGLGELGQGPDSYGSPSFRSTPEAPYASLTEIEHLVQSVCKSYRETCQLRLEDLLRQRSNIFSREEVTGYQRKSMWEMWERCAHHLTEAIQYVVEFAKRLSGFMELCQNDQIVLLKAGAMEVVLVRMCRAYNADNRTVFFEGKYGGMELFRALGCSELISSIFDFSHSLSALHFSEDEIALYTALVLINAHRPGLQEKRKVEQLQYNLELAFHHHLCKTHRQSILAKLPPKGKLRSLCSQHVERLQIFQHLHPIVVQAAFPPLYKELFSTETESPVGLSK

O=c1[nH]c2ccc(C(O)(C(F)(F)F)C(F)(F)F)cc2c2ccccc12 [Compound 1]
pIC50 [1]: 5.29

Cn1c(=O)c2ccccc2c2cc(C(O)(C(F)(F)F)C(F)(F)F)ccc21 [Compound 13]
pIC50 [1]: < 4.70

CCCCn1c(=O)c2ccc(OC)cc2c2cc(C(O)(C(F)(F)F)C(F)(F)F)ccc21 [Compound 23]
weaker PR activity than 12 [2]: 5 fold

O=c1[nH]c2c(Cl)cc(C(O)(C(F)(F)F)C(F)(F)F)cc2c2ccccc12 [Compound 43, 4-Chloro-2-(1,1,1,3,3,3-hexafluoro-2-hydroxypropan-2-yl)phenanthridin-6(5H)-one]
pIC50 ([2]; alkaline phosphatase, T47D cells, progesterone 1 nM, new compound 43, read-out: PR antagonistic activity (IC50)): 6.46
pIC50 [3]: < 4.70
pIC50 [4]: < 4.70
pIC50 [5]: < 4.70

Reference: paper PMC6073568, “Efficient Lead Finding, Activity Enhancement and Preliminary Selectivity Control of Nuclear Receptor Ligands Bearing a Phenanthridinone Skeleton” (International Journal of Molecular Sciences, 2018)
